What was measured:
Assay type in all cases: cell-based, human
[1] = test system: E-selectine adhesive molecule CD62 (ELAM-1); assay: Cytofluorometric quantitative analysis of E-selectine (ELAM-1) expression in ECV 304 cells; details: 48 hr
Method: (§1) Cell lines ECV 304: they are cells coming from umbilical cord of a new-born and spontaneously immortalized at the 136th step (distributed from Collection of Cell Cultures). Such cells were cultured in a complete medium consisted of: Medium 199, L-glutamine 1%, penicillin/streptomycin 10 (Invitrogen) with an addition of 10% FCS (fetal calf serum) (Hy-clone).
Cytofluorometric quantitative analysis of aminaphtone effects on the E-selectine adhesive molecule expression CD62 (ELAM-1).
Cells of the ECV304 line, cultured in 28 cm^2 Petri dishes, were stimulated with IL-1β at 100 U/ml (Roche) over 48 hrs in a complete medium and complete medium additioned with aminaphtone at the concentration of 2; 4; 5 μg/ml, respectively. Such concentrations are equivalent to concentrations reached “in vivo” through administration of Capillarema per os at the standard dosage of 3 capsules/day (capsules with 75 mg of active substance per day). Furthermore, cells untreated with IL-1β were incubated in a complete medium additioned with aminaphtone alone at the concentration of 4 μg/ml.
Samples, after washing with PBS, were removed from the culture plates through a treatment with trypsin-EDTA. Adhesive molecules expression was detected through incubation over 20 min. with 7 μl/10^6 of human monoclonal antibody CD62-E-PECy5 (ELAM-1) (Becton-Dickinson). The binding specificity was ensured by the addition of the control […]. After washing and re-suspension in the fixing solution (1% paraformaldehyde, PFA in PBS), samples were analyzed in a flow cytometry with FACSdiva Software (Becton-Dickinson). Data were expressed as mean channel fluorescence and as fluorescence percentage of positive cells. All experiments were repeated 5 times on independent cell samples coming from different experimental sessions. Evaluation of endothelin production (ET-1).

[2] = test system: endothelin-1 (ET-1); assay: Endothelin-1 production from ECV 304 cells, EIA-kit on supernatants; details: aminaphtone 2, 4, 6 mcg/ml, dose-dependent
Method: as §1
a) EIA-kit—Supernatants of cell samples ECV304 were collected, cultured as above, treated with IL-1β at 100 U/ml over 6-12-24 and 36 hrs or with IL-1β at 100 U/ml additioned with aminaphtone at the concentration of 2; 4; 6 μg/ml, respectively. Moreover, samples non-stimulated with IL-1β were incubated with the addition of aminaphtone alone at 2; 4; 6 μg/ml.
The concentration of ET-1 existing in the supernatants was quantified through Endothelin-1 EIA-Kit (CAYMAN Chemical) in an interval between 0 and 250 pg/ml. This immunometric test is based on the “sandwich” technique with a double antibody.

[3] = test system: Pre-Pro-ET-1 (PPET-1) gene; assay: Real-Time RT-PCR specific for Pre-Pro-ET-1 (PPET-1) in ECV 304 cells; details: ECV304 cells with or without IL-1β 100 U/ml, aminaphtone 2; 4; 6, 6-12-24-36 hrs
Method: as §1
b) Real-Time RT-PCR specific for Pre-Pro-ET-1 (PPET-1). The expression of PPET-1 gene was detected at 6-12-24-36 hrs, respectively, in samples: treated with IL-1β (100 U/ml); treated with IL-1β (100 U/ml) additioned with aminaphtone (2; 4; […]); non-stimulated by IL-1β but treated with aminaphtone alone. RT-PCR technique based on TaqMan technology was used (Applied Biosystems, Foster City, Calif.), through a sequence determination system ABI PRISM 7000 (Applied Biosystems). 2-4 μl were collected form each cDNA, diluted 1:5, in a final volume of 25 μl. […] The quantification of the specific mRNA PPET-1 was normalized for the constitutive gene expression glyceraldehyde-3-phosphate-dehydro-genase (GAPDH). Relative quantifications of the gene expression were made possible by the use of the comparative method CT (ΔΔCT). The CT value was defined as the number of PCR cycles required for overcome the fluorescence signal (defined as 10-fold the standard deviation of the basal variation). […]

Structure (SMILES): Cc1cc(OC(=O)c2ccc(N)cc2)c2ccccc2c1O [aminaphtone, 2-hydroxy-3-methyl-1,4-naphthohydroquinone-2-p-aminobenzoate]
- ELAM-1 % positive cells ([1]; ECV304 cells + IL-1β 100 U/ml, aminaphtone 2 mcg/ml, IL-1β alone 38.4±3.7, p=n.s.): 36.6±4.5%
- ELAM-1 membrane fluorescence, mean channel (MC), mean±standard deviation ([1]; ECV304 cells + IL-1β 100 U/ml, aminaphtone 2 mcg/ml, IL-1β alone 369.6±30.5, p<0.001): 332.2±36.8
- ELAM-1 % positive cells ([1]; ECV304 cells + IL-1β 100 U/ml, aminaphtone 4 mcg/ml, IL-1β alone 38.4±3.7, p<0.001): 28.2±2.9%
- ELAM-1 membrane fluorescence, mean channel (MC), mean±standard deviation ([1]; ECV304 cells + IL-1β 100 U/ml, aminaphtone 4 mcg/ml, IL-1β alone 369.6±30.5, p<0.001): 278.4±16.2
- ELAM-1 % positive cells ([1]; ECV304 cells + IL-1β 100 U/ml, aminaphtone 5 mcg/ml, IL-1β alone 38.4±3.7, p<0.001): 27.2±3.7%
- ELAM-1 membrane fluorescence, mean channel (MC), mean±standard deviation ([1]; ECV304 cells + IL-1β 100 U/ml, aminaphtone 5 mcg/ml, IL-1β alone 369.6±30.5, p<0.001): 252.6±10.3
- ELAM-1 % positive cells ([1]; ECV304 cells not activated with IL-1β, aminaphtone 4 mcg/ml, medium alone 29.1±3.1, p<0.05): 19.4±1.7%
- ELAM-1 membrane fluorescence, mean channel (MC), mean±standard deviation ([1]; ECV304 cells not activated with IL-1β, aminaphtone 4 mcg/ml, medium alone 250±22, p<0.05): 219±8.3
- ET-1 production (EIA-kit) ([2]; ECV304 cells non-activated, culture medium alone, significant at 12 h (6 mcg/ml), 24 h and 36 h (4, 6 mcg/ml)): tends to reduce the ET-1 production
- ET-1 production (EIA-kit) ([2]; ECV304 cells stimulated with IL-1β 100 U/ml, 6-12-24-36 hrs, significant at 6 h (4, 6 mcg/ml), 12 h (4, 6 mcg/ml), 36 h (6 mcg/ml)): tends to reduce the ET-1 production
- gene transcription of PRE-PRO-ET-1 [3]: trend, already observed at a level of gene transcription of PRE-PRO-ET-1

— patent publication US10028929B2, “Method of treating raynaud's disease secondary to connectivitis using aminaphtone” (LABORATORI BALDACCI S.P.A., priority 2006, dated 2018)
